{"source": "patent US20260008856A1", "about": "“METHODS OF TREATING DISEASE USING ANTI-IL1RAP ANTIBODIES AND ANTIBODY DRUG CONJUGATES” (Bluefin Biomedicine, Inc., priority 2022, published 2026)", "key": {"[1]": {"test_system": "TARC production in HDM stimulated human PBMCs", "experiment": "TARC production in HDM stimulated human PBMCs", "assay_type": "cell-based", "from_the_text": "Materials included Human peripheral blood mononuclear cells (PBMCs) that were isolated from healthy donor blood and either frozen in liquid nitrogen and thawed prior to analysis or used fresh. Materials also included HDM (house dust mite extract) that was from Greer lab and purchased through Fisher Scientific (NC9756554, Lot #390844). Additionally, Human IL-4 (204-IL-010) was purchased from R&D Systems; Human IL-13 (200-13) was purchased from Peprotech; JAK inhibitors (JAKi) Abrocitinib (HY-107429) and Upadacitinib (HY-19569) were purchased from MedChemExpress; Dexamethasone (D4902) was purchased from Sigma-Aldrich; Dupilumab (HY-P9926) was purchased from MedChemExpress; Tralokinumab was produced by Bluefin Biomedicine according to the published protein sequence; and TARC ELISA kits (DuoSet Cat #DY364, Quantikine Cat #SDN00) were purchased from R&D Systems.\nBlood was drawn in heparin tubes from healthy volunteers. PBMCs were isolated by centrifugation of the blood over Ficoll-Paque Plus density gradients using LeucoSep tubes.\n(§1) 0.2 million PBMCs in 100 ul medium (RPMI1640, 10% heat-inactivated FBS) were added to each well of 96 well cell culture plate. BFB759 at multiple concentrations in 50 ul medium was added to the wells. The cells were incubated in the incubator for 45 min. Then, 50 ul HDM solution (final concentration 10 ug/ml) was added to the wells. After 7 days incubation, the supernatant was transferred to a new 96 well plate, and used in TARC ELISA right away, or frozen in −80 C freezer for ELISA later. For the combination studies of BFB759 with other drugs, the single agent or combination of drugs were added to the PBMCs, incubated for 45 min, then HDM solution, or HDM and IL-4 or IL-13 solution were added to the wells. The assay was incubated for 7 days, and the supernatant was harvested for TARC ELISA."}, "[2]": {"test_system": "TARC expression in PBMCs stimulated with HDM and IL-4", "experiment": "TARC in PBMCs treated by HDM and hIL-4", "assay_type": "cell-based, human", "settings": "HDM 10 ug/ml, IL-4 750 ug/ml; three antibody concentrations", "experimental": "as §1\nDupilumab is approved for treatment of AD (Atopic Dermatitis). It inhibits IL-4/13 signaling by blocking their binding to IL-4Ra. […] (FIG. 15)\nIn the data shown in FIG. 15, HDM was used at 10 ug/ml, IL-4 was used at […], antibodies were at three different concentrations as shown in the graph. Data shown are mean±s.d."}, "[3]": {"test_system": "normal human dermal fibroblasts (NHDF)", "experiment": "IL-6 and IL-8 production in NHDF stimulated with cytokine combo incl. IL-17A", "assay_type": "cell-based", "settings": "cytokine combo IL-1α/β, IL-36α/β/γ, antibodies 0-20 ug/ml, BFB759 0.5 ug/ml in combination", "experimental": "(§2) Human NHDF cells were plated on 96-well, flat-bottom plates at 4,000 cells/well. […] For combination therapy, 0.5 ug/ml BFB759 was mixed with Secukinumab or Isotype control antibody at increasing concentrations (0-20 ug/ml, 5-fold dilution) and incubated with cells in duplicate for 45 minutes, prior to the addition of cytokine combo. The plates were then incubated overnight at 37° C., 5% CO2. 24 hours after treatment, supernatants were transferred and assayed for IL-6 and IL-8, as per manufacture's protocol (R&D Systems; Human IL-6 DuoSet ELISA, Human IL-8/CXCL8 DuoSet ELISA). The raw assay data were analyzed using GraphPad Prism 9 software to perform a non-linear regression."}, "[4]": {"test_system": "IL-6 secretion in human whole blood cultures stimulated with HKCA", "experiment": "IL-6 production in human whole blood cultures stimulated with heat-killed Candida albicans", "assay_type": "cell-based", "settings": "24 hours, 1 μg/ml alone, combination 1 μg/ml BFB759 + 0.5 μg/ml adalimumab", "from_the_text": "Materials included Human peripheral blood drawn from 5 healthy donors. Materials also included Anti-human TNF alpha (Adalimumab Biosimilar), BioXCell cat #SIM0001, lot #8024221F1; Heat-killed Candida albicans (HKCA), InvivoGen cat #tlrl-hkca, lot #6292-44-02; RPMI 1640 with L-glutamine and HEPES, Corning cat #10-041-CM; and Human IL-6 DuoSet ELISA, R and D Systems cat #DY206-05. Blood was drawn into heparin tubes from healthy volunteers. Whole blood cultures comprised of whole blood diluted with plain RPMI 1640 medium were set up in sterile 5.0 ml polypropylene snap cap culture tubes. One of the following treatments were added for 1 hour prior to either being left unstimulated or receiving stimulation with 1.5×10^6 cells heat-killed Candida albicans: medium alone (cells alone), 1 μg/ml IgG1 isotype control antibody alone, 1 μg/ml BFB759 alone, 1 μg/ml adalimumab alone, or one of two combination treatments of 1 μg/ml IgG1 isotype control antibody+0.5 μg/ml adalimumab or 1 μg/ml BFB759+0.5 μg/ml adalimumab. The final volume of each culture was 1.0 ml. Cultures were incubated for 24 hours at 37° C./5% CO2. Supernatants harvested from each culture in duplicate were frozen at −80° C. until assayed in duplicate for IL-6 levels by ELISA."}, "[5]": {"test_system": "normal human dermal fibroblasts (NHDF)", "experiment": "IL-6 and IL-8 production in NHDF stimulated with cytokine combo incl. TNF-α", "assay_type": "cell-based", "settings": "cytokine combo IL-1α/β, IL-36α/β/γ, antibodies 0-20 ug/ml, BFB759 0.5 ug/ml in combination", "experimental": "as §2, with “adalimumab” for “Secukinumab”, “isotype” for “Isotype”"}}}
{"compound": "CCCS(=O)(=O)N[C@H]1C[C@@H](N(C)c2ncnc3[nH]ccc23)C1", "note": "[Abrocitinib]", "values": [{"measurement": "inhibition of TARC in HDM stimulated cells", "setting": "[1]; HDM 10 ug/ml, JAKi and dexamethasone 0.1 nM, 10 nM, 1 uM, BFB759 1 ug/ml in combination", "result": "dose dependent inhibition"}]}
{"compound": "Dupilumab: approved for Atopic Dermatitis; inhibits IL-4/13 signaling by blocking their binding to IL-4Ra", "values": [{"measurement": "inhibition of TARC level", "setting": "[1]; HDM stimulated PBMCs, same assay", "result": "does not inhibit TARC level significantly"}, {"measurement": "inhibition of HDM induced TARC level, FIG. 13", "setting": "[1]; antibodies 30 ug/ml, HDM 10 ug/ml", "result": "does not or minimally inhibits"}, {"measurement": "inhibition of TARC expression in the HDM and IL-4 model", "setting": "[2]", "result": "partially inhibits"}]}
{"compound": "Secukinumab: anti-IL-17A antibody [reference compound]", "values": [{"measurement": "IL-6 production", "setting": "[3]", "result": "limited inhibition"}, {"measurement": "IL-8 production", "setting": "[3]", "result": "limited inhibition"}]}
{"compound": "adalimumab [reference compound]", "values": [{"measurement": "inhibition of IL-6 secretion", "setting": "[4]", "result": "inhibit IL-6 secretion"}, {"measurement": "IL-6 production", "setting": "[5]", "result": "limited inhibition"}, {"measurement": "IL-8 production", "setting": "[5]", "result": "limited inhibition"}]}
